# Measured values from ChEMBL document CHEMBL1201862, “PubChem BioAssay data set” (2004).
# Activity calls are given as the source filed them.
# Assays:
# [1] = target: T1, Fatty acid synthase (Homo sapiens, UniProt P49327); test: FAS thioesterase domain inhibitors, dose response, biochemical, endpoint fluorescence intensity, uHTS hits (AID 624327); type: functional;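 note: fluorescence from hydrolysis of an O-methyl fluorescein acyl ester substrate by the enzyme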
# [2] = target: T1, Fatty acid synthase; test: FAS thioesterase domain inhibitors, dose response, biochemical, kinetic fluorescence intensity (AID 624326); type: functional;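 note: rate of fluorescence rise from hydrolysis of a fluorogenic O-methyl fluorescein ester substrate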
# [3] = HEp-2 cell cytotoxicity, dose response, cytotoxicity control for RSV inhibitor project, HTS (AID 2410); type: functional; settings: human respiratory syncytial virus
# [4] = microbe, parasite or virus in culture; type: functional; settings: Mycobacterium tuberculosis
# [5] = Luminescence Cell-Based Dose Retest to Confirm Inhibitors of Cancer Stem Cells. [Related pubchem assays (depositor defined):AID2717, AID2721]; type: functional; settings: Homo sapiens
# [6] = tested on: H9c2; test: cells; type: functional, cell-based; settings: Rattus norvegicus, H9c2, Myocardium;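 note: confirmatory concentration-response retest of ultra-high-throughput screening hits for modulation of myocardial damage; cell death induced by hydrogen peroxide oxidative stress; compound pretreatment for 60 min then peroxide exposure for 2 h; potency is for protecting the cells against peroxide damage rather than for killing them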
# [7] = target: Glyceraldehyde-3-phosphate dehydrogenase (Homo sapiens, UniProt P04406)
# Chain of Glyceraldehyde-3-phosphate dehydrogenase (P04406 whole entry): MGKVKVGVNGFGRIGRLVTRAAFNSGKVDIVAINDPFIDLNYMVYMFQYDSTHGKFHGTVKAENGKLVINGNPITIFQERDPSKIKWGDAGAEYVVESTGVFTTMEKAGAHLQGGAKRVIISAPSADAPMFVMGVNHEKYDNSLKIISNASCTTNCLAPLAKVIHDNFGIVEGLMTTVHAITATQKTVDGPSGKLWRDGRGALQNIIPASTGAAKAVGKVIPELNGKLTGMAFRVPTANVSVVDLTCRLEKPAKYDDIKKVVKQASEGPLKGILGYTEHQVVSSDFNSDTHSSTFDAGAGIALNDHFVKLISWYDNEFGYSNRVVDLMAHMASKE
# [8] = growth suppression of PTEN-null colon cells, dose response, cell-based, HCT116 PTEN knockout (AID 1047); type: functional;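 note: HCT116 colon tumor cells with PTEN knocked out; cells exposed to compound for 60 hours before readout; potency for loss of cell viability measured by luminescence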
# [9] = growth suppression of beta-catenin-knockout colon cells, dose response, cell-based, HCT116, human colon tumor (AID 1045); type: functional;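 note: HCT116 colon tumor cells with beta catenin knocked out; cells exposed to compound for 60 hours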
# [10] = target: T2, High affinity choline transporter 1 (Homo sapiens, UniProt Q9GZV3); test: CHT inhibitors, dose response, cell-based, 5-point CRC, membrane potential dye (AID 504840); type: functional
# T2 sequence (Q9GZV3 whole entry): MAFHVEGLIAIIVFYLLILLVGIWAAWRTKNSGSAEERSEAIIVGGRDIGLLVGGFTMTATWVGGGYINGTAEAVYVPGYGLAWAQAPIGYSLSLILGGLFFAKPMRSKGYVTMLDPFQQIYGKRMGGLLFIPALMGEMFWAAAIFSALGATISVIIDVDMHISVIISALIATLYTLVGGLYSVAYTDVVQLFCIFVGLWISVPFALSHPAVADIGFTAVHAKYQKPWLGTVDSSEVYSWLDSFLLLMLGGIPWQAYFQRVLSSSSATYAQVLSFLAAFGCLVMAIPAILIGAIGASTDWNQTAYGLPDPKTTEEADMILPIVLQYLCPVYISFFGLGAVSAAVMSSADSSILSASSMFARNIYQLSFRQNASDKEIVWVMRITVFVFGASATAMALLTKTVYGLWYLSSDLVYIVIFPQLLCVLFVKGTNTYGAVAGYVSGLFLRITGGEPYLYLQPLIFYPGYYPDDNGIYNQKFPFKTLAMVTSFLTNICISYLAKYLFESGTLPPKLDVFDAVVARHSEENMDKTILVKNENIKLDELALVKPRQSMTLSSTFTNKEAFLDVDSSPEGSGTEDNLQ
# [11] = Shn3 3'UTR reporter inhibitors, dose response, cell-based, Clone20 osteoblasts, firefly luciferase, cherry-picked (AID 624132); type: functional;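 note: firefly luciferase luminescence from reporter carrying the Shn3 3'UTR in osteoblasts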
# [12] = HepG2 cell cytotoxicity, dose response, cytotoxicity control for Shn3 inhibitor project, CellTiter-Glo, cherry-picked (AID 624134); type: functional, cell-based
# [13] = target: Genome polyprotein (dengue virus type 2, UniProt P29990); test: Dengue-2 NS5 methyltransferase inhibitors, primary screen, biochemical, confirmation dose response (AID 588689); type: functional
# Chain of Genome polyprotein (P29990 2492-3391 limits assumed): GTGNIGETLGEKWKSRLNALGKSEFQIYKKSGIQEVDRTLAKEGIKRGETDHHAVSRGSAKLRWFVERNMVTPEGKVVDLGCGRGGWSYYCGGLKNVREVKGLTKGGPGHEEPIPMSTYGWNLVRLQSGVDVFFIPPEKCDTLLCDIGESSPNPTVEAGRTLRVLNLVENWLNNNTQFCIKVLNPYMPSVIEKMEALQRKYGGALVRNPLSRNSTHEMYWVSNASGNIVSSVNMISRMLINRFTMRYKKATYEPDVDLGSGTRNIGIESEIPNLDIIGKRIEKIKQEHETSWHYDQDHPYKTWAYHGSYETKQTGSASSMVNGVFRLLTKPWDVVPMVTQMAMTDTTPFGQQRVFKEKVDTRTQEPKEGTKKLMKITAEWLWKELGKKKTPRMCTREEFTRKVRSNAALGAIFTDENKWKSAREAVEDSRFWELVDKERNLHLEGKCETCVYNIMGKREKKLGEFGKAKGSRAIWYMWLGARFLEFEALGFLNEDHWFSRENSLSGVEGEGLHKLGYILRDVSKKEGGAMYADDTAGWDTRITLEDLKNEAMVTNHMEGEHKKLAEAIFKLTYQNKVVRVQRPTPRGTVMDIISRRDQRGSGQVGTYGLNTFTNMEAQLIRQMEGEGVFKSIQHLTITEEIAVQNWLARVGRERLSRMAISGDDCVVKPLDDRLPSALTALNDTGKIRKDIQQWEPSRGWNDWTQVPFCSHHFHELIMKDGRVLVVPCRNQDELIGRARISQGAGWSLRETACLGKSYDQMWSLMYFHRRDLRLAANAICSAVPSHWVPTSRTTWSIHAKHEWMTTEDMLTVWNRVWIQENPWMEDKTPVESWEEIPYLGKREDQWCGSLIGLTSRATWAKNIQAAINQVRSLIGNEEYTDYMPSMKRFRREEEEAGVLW
# [14] = target: T3, Carboxy-terminal domain RNA polymerase II polypeptide A small phosphatase 1 (Homo sapiens, UniProt Q9GZU7); test: inhibitors of CTDSP1, concentration-response testing, biochemical assay, absorbance-based, actives from ultra-high-throughput screening (AID 540297); type: functional
# T3 sequence (Q9GZU7 whole entry): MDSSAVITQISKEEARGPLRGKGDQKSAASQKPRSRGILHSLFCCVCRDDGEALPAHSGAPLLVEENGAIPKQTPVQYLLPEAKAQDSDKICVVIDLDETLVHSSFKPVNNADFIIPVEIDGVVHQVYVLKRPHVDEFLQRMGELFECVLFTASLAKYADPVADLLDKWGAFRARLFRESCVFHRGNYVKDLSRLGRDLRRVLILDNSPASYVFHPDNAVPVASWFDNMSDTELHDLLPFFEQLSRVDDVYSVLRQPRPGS
# [15] = target: T4, Rac GTPase-activating protein 1 (Homo sapiens, UniProt Q9H0H5); test: MgcRacGAP GTPase-activating activity inhibitors, confirmation, biochemical, ADP Hunter fluorescence, primary and confirmatory (AID 624330); type: functional
# T4 sequence (Q9H0H5 whole entry): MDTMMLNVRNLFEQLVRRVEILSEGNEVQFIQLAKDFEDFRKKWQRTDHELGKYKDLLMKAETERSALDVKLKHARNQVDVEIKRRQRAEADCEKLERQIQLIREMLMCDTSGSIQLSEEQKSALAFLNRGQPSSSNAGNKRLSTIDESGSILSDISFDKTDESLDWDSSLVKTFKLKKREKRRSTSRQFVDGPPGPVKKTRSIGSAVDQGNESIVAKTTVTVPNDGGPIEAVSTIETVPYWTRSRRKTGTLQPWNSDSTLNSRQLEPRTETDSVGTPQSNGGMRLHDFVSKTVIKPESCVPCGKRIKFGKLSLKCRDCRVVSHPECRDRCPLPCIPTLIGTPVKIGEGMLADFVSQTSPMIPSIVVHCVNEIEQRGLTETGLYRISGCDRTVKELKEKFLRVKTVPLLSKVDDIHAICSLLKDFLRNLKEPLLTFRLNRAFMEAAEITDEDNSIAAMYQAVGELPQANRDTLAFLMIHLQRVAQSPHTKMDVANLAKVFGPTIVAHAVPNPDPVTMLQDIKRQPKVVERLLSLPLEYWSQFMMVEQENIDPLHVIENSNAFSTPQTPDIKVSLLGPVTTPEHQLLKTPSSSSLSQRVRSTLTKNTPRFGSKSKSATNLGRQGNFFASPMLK
# [16] = cytotoxicity in HEK-293T cells, dose response, cytotoxicity control for TCR NF-kB inhibitor project, luminescence, T-cell screen hits (AID 489026); type: functional, cell-based;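 note: cells exposed to compound about 14 hours before the viability readout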
# [17] = THP-1 cell cytotoxicity, dose response, cytotoxicity control for non-replicating M. tuberculosis project (AID 489025); type: functional
# [18] = NIH-3T3 fibroblast cytotoxicity, dose response, cytotoxicity control, cell-based, fluorescence, Alamar Blue, secondary assay (AID 2327); type: functional;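 note: NIH-3T3 mouse fibroblasts cultured with fluconazole at 8 µg/mL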
# [19] = C. albicans growth with fluconazole, confirmation, fluorescence, retest (AID 2467); type: functional, cell-based
# [20] = target: Induced myeloid leukemia cell differentiation protein Mcl-1 (Homo sapiens, UniProt Q07820); type: functional
# Chain of Induced myeloid leukemia cell differentiation protein Mcl-1 (Q07820 whole entry): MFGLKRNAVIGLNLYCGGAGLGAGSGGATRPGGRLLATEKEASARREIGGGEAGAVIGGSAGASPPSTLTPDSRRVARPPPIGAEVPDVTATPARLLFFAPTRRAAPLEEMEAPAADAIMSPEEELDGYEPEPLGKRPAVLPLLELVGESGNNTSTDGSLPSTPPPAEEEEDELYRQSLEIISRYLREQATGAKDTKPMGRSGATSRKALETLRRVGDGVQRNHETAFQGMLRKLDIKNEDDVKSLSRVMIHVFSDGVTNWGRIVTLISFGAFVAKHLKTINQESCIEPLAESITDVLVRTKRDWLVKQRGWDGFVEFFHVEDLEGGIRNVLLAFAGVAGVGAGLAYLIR
# [21] = tested on: Streptococcus sp. 'group A'; test: growth inhibition of control SK(-) GAS strain, dose response, counter-screen for streptokinase expression inhibitor project, luminescence, kanamycin, BacTiterGlo, confirmation (AID 1900); type: functional, organism-based
# [22] = tested on: Streptococcus; test: Group A Streptococcus viability loss, dose response, counter-screen for streptokinase expression inhibitor project, luminescence, BacTiterGlo (AID 1915); type: functional, organism-based;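 note: potency for reduction of bacterial viability or growth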
# [23] = cells; type: functional
# [24] = inhibitors of intracellular T. cruzi replication, confirmation, NIH3T3 host cells, beta-gal luminescence (AID 2044); type: functional, cell-based;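 note: intracellular parasites grown in NIH/3T3 mouse fibroblasts as host cells; luminescent beta-galactosidase reporter signal from transgenic T. cruzi replicating inside host cells; inhibitors lower the luminescence signal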
# [25] = cytotoxicity toward NIH3T3 fibroblasts, dose response, counter-screen, cell-based, ATP luminescence, mouse fibroblasts (AID 2010); type: functional;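 note: cells exposed to compound for about 90 hours before reading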
# [26] = control 3'UTR Renilla luciferase suppression, dose response, counter-screen for Shn3 inhibitor project, cell-based, Clone20-Shn3RL, cherry-picked (AID 624133); type: functional
# [27] = ZM109 Env clade C HIV-1 fusion inhibitors, dose response, HeLa effector, CEM target cells, luciferase, cherry-pick (AID 652058); type: functional, cell-based
# [28] = inhibitors of clade B AD8 Env fusion, dose response, cell-based, cherry-pick (AID 652062); type: functional;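 note: luciferase signal from cell-cell fusion driven by HIV-1 clade B AD8 Env; potency is for inhibitors of fusion seen as a drop in luminescence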
# [29] = target: T5, Polyadenylate-binding protein 1 (Homo sapiens, UniProt P11940); test: PABP1 MLLE–PAM2 interaction inhibitors, dose response, miRNA deadenylation inhibitor project, biochemical, fluorescence polarization, Cy5-PAM2 peptide, secondary (AID 602260); type: functional; settings: read-out: IC50_Mean
# T5 sequence (P11940 whole entry): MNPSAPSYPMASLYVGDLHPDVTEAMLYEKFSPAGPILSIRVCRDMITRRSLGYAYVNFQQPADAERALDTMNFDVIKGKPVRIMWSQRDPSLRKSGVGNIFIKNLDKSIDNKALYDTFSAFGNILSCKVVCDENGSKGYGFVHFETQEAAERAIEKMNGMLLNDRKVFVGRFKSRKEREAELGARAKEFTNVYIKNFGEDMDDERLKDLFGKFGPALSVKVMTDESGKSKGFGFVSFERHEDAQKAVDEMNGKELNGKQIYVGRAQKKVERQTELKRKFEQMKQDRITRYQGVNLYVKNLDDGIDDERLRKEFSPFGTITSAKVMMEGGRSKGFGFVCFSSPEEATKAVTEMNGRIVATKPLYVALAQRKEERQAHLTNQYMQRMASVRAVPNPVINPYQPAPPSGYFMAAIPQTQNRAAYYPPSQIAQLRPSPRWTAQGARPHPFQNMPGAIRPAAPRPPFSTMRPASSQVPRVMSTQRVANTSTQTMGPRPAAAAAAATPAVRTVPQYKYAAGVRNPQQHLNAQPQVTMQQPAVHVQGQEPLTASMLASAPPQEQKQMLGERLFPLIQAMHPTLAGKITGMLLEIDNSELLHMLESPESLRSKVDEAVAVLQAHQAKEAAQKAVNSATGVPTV
# [30] = target: T5, Polyadenylate-binding protein 1; test: PABP1 MLLE–PAM2 binding inhibitor potency, dose response, biochemical, fluorescence polarization, FITC-PAM2 peptide (AID 602259); type: functional; settings: read-out: IC50_Mean
# T1 sequence (P49327 whole entry, the tested form may be a part): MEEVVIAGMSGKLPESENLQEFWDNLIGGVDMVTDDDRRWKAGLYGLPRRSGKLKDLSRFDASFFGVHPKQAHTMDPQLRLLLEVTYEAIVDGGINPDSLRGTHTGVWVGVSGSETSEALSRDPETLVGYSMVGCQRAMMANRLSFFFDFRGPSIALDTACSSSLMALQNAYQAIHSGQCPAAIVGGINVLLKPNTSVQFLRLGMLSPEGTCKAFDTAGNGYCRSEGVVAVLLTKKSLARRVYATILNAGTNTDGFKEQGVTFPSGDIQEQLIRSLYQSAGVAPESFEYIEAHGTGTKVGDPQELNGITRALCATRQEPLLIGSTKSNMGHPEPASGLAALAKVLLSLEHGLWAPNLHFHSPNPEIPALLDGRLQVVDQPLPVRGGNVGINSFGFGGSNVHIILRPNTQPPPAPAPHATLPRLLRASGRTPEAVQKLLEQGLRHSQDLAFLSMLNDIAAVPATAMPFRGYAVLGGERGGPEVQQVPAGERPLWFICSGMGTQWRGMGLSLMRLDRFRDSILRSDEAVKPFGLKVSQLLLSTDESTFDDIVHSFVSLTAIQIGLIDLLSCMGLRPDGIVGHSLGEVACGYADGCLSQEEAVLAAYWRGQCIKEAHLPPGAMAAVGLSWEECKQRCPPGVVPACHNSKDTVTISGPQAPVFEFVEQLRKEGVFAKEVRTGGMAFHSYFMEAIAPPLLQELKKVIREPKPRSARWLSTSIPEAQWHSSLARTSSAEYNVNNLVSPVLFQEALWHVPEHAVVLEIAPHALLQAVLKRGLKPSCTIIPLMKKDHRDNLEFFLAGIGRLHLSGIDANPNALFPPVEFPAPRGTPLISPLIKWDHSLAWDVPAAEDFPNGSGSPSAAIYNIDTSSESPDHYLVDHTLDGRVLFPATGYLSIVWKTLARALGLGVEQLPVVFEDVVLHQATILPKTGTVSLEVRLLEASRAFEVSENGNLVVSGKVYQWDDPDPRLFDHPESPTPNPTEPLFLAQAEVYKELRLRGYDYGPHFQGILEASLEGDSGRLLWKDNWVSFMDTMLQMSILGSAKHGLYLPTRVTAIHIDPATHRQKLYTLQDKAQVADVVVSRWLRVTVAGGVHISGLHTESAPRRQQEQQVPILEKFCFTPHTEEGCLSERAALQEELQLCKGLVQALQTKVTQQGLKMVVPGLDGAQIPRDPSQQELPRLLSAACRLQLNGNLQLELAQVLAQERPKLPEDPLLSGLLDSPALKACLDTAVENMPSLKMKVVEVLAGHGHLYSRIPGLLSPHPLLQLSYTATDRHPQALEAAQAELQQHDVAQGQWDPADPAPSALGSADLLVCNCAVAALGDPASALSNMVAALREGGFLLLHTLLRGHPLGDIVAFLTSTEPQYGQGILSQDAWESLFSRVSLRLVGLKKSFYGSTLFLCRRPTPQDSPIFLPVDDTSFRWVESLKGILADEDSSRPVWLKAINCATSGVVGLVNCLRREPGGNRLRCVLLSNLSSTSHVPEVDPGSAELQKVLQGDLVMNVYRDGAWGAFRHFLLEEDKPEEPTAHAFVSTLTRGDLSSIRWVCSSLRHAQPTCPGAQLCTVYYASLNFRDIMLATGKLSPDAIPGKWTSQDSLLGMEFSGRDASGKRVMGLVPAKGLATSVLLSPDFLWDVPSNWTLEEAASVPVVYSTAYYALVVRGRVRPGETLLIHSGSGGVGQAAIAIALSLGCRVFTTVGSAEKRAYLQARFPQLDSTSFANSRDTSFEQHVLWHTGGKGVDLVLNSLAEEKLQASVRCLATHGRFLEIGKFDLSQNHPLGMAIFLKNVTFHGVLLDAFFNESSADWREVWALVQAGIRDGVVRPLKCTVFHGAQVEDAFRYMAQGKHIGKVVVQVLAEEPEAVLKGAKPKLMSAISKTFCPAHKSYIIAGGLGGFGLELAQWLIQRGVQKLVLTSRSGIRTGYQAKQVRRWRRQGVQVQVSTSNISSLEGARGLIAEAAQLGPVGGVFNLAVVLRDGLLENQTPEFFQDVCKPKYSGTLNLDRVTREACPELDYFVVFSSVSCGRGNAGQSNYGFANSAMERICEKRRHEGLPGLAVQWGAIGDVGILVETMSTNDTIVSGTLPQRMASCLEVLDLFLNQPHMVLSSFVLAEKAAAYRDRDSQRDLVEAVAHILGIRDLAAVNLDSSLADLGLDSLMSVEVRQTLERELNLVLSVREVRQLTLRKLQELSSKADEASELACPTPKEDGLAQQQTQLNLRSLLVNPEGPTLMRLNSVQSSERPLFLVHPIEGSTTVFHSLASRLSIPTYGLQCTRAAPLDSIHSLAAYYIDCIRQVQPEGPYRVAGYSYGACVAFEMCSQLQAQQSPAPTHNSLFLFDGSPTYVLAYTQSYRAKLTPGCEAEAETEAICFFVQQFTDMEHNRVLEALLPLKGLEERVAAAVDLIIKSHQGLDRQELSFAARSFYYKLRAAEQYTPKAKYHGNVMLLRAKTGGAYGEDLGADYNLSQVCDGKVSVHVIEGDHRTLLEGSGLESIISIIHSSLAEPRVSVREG
structure (smiles),measurement,setting,value
Cc1cc(NC(=O)COC(=O)c2cc([N+](=O)[O-])ccc2N2CCOCC2)ccc1Br,IC50,[1],2.82 µM (active)
same,IC50,[2],4.33 µM (active)
Cn1nc(-c2ccccc2F)c2cc(C(=O)Nc3ccc4c(c3)OCCO4)sc21,CC50,[3],26.9 µM (active)
same,CC50,[4],> 40 µM (active)
same,AC50,[5],3.48 µM (active)
same,IC50,[6],> 79 µM (inactive)
Cc1cc(NS(=O)(=O)c2ccc(NC(=O)C(F)(F)F)cc2)no1,IC50,[7],> 100 µM (not active)
CCCn1c(CN2CCN(c3cccc(Cl)c3)CC2)nc2c1c(=O)n(C)c(=O)n2C,EC50,[8],39.9 µM (active)
same,EC50,[9],33.1 µM (active)
same,IC50,[10],14.2 µM (active)
O=[N+]([O-])c1cccc(S(=O)(=O)NCc2ccncc2)c1,AC50,[11],3.09 µM (active)
same,AC50,[12],48.4 µM (active)
O=C(NN1C(=O)C2C(c3ccccc3)C=CC(c3ccccc3)C2C1=O)c1cccc(Br)c1 (stereo not drawn),IC50,[1],12.1 µM (active)
same,IC50,[2],9.22 µM (active)
COc1cccc(N2C(=O)C(Cl)=C(N3CCN(CCO)CC3)C2=O)c1,IC50,[7],> 50 µM (inconclusive)
O=C1NC(=O)N(c2ccc3c(c2)OCO3)C(=O)/C1=C\c1ccc(-c2ccccc2C(=O)O)o1,IC50,[13],> 100 µM (active)
same,IC50,[14],3.9 µM (active)
same,IC50,[15],75.4 µM (active)
COc1cc(/C=C2\SC(NS(=O)(=O)Cc3ccccc3)=NC2=O)c([N+](=O)[O-])cc1OC,IC50,[10],9.12 µM (active)
same,IC50,[13],55.8 µM (active)
CCCCNC(=O)c1onc(CSc2cccc3ccccc23)c1C(=O)O,IC50,[13],49.6 µM (active)
CCOc1nc(SCCOc2ccc(C)cc2)nc(N(C)C)n1,EC50,[8],45 µM (active)
same,EC50,[9],56.2 µM (active)
CN(C)C1=C(Cl)C(=O)N(c2ccnc(Cl)c2)C1=O,IC50,[7],> 50 µM (inconclusive)
Cc1c(C(=O)N2CCOCC2)[nH]c2c1C(=O)CC(c1ccccc1Cl)C2 (stereo not drawn),IC50,[16],> 80 µM (inactive)
Clc1ccc(CN2C3=NCCCN3c3ccccc32)cc1,CC50,[17],> 40 µM (active)
Cc1nn(-c2ccccc2)c(N)c1N=Nc1ccc(Cl)cc1,EC50,[18],22.8 µM (inconclusive)
same,EC50,[19],5.82 µM (active)
same,CC50,[4],> 40 µM (active)
COc1ccc(NC(=O)c2ccccc2N(Cc2ccccc2)S(C)(=O)=O)cc1,IC50,[20],40.6 µM (not active)
Cc1ccccc1OCCCCc1c(C)n[nH]c1C,EC50,[21],9.02 µM (active)
same,EC50,[22],19 µM (active)
same,CC50,[17],> 40 µM (active)
same,IC50,[23],7 µM (active)
Cc1ccc(N2C(=O)C(Cl)=C(N3CCOCC3)C2=O)cc1,IC50,[7],> 50 µM (inconclusive)
COC(=O)c1ccc(C2c3c(oc4ccc(Cl)cc4c3=O)C(=O)N2CCN2CCOCC2)cc1 (stereo not drawn),IC50,[1],14.6 µM (active)
same,IC50,[2],11.6 µM (active)
N#C/C(=C\c1ccc(C(=O)O)cc1)c1nc(O)c2c3c(sc2n1)CCCC3,IC50,[20],3.52 µM (active)
COCCCNCCOCCOc1ccc(Cl)cc1C(C)(C)C,EC50,[8],14.9 µM (active)
same,EC50,[9],14.3 µM (active)
COc1cc(CNCCc2ccc(S(N)(=O)=O)cc2)ccc1OCc1ccc(Cl)cc1,EC50,[24],0.43 µM (active)
same,EC50,[8],9.48 µM (active)
same,EC50,[25],> 60 µM (not active)
same,EC50,[9],7.47 µM (active)
O=C(C1=C[C@@H](c2ccc(C(F)(F)F)cc2)C[C@@H](OCc2ccc(CO)cc2)O1)N1CCN(Cc2ccccc2)CC1,IC50,[20],1.48 µM (not active)
Cc1cc(C)c2nc(N3C(=O)C(O)=C(C(=O)c4ccco4)C3c3ccc(O)cc3)sc2c1 (stereo not drawn),IC50,[13],30.4 µM (active)
Cc1ccc(-c2csc3nc(C(C)C)oc(=O)c23)c(C)c1,IC50,[1],1.32 µM (active)
same,IC50,[2],0.761 µM (active)
COc1ccccc1Cc1c(-c2ccco2)nc2c(C)cc(Br)cn12,AC50,[11],1.9 µM (active)
same,AC50,[12],45.6 µM (active)
same,AC50,[26],5.7 µM (active)
CC(C)(C)OC(=O)NCCc1onc(-c2cccc([N+](=O)[O-])c2)c1C(=O)O,IC50,[1],1.47 µM (active)
same,IC50,[2],1.16 µM (active)
COc1ccccc1S(=O)(=O)N[C@H]1CC[C@@H](CC(=O)N2CCN(C)CC2)O[C@H]1CO,AC50,[27],0.992 µM (active)
same,AC50,[28],29.1 µM (active)
CCOc1cc(/C=C2/S/C(=N/c3ccccc3)N(Cc3cccnc3)C2=O)ccc1OCC#N,EC50,[8],26.9 µM (active)
same,EC50,[9],32.5 µM (active)
CC(=C/c1ccccc1)/C=N/Nc1nc(N2CCCCC2)nc(N2CCCCC2)n1,EC50,[8],24 µM (active)
same,EC50,[9],21.6 µM (active)
CN(C)CCN1C(=O)c2cccc3cc([N+](=O)[O-])cc(c23)C1=O [MITONAFIDE],IC50,[29],> 66 µM (inactive)
same,AC50,[11],1.11 µM (active)
same,IC50,[30],43.4 µM (inactive)
same,AC50,[12],2.2 µM (active)
